Data reported in paper PMC12169613 (Journal of Medicinal Chemistry, 2025).
Where two headings read alike, the source gives them in different places.

Tests used:
[1] = target: Nluc-GPR1 (Homo sapiens, UniProt P46091); experiment: cell-based
Method: After overnight incubation at standard conditions, 75,000 cells/well were seeded into a black, solid 96-well plate using phenol red-free culture medium. […] (positive control) was added to the cells. […] The readout was performed directly in a microplate reader (Tecan Spark) with a filter for fluorescence (λem = 550–700 nm) and bioluminescence (λem = 430–470 nm). Data studies were performed as mentioned for arr-3 BRET.

[2] = target: human Y1 receptor (hY1R) (Homo sapiens, UniProt P25929)
[3] = target: CMKLR1 (Homo sapiens, UniProt Q99788)
Text: Data are presented as mean±SEM.
(2 pictures or pasted objects on this page, not shown here)

[4] = test system: CMKLR1; details: cited from earlier work

Chain of Nluc-GPR1 (P46091 whole entry): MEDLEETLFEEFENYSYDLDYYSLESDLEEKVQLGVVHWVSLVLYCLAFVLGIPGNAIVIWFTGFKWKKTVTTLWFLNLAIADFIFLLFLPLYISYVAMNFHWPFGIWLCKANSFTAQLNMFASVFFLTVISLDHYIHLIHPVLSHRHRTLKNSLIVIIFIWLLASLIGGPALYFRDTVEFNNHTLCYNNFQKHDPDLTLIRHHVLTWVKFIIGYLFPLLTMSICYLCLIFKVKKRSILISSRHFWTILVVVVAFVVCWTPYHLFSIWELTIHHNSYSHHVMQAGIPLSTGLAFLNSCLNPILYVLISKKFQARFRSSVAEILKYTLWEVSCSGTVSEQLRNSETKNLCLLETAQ
Chain of CMKLR1 (Homo sapiens, UniProt Q99788) (Q99788 3-373): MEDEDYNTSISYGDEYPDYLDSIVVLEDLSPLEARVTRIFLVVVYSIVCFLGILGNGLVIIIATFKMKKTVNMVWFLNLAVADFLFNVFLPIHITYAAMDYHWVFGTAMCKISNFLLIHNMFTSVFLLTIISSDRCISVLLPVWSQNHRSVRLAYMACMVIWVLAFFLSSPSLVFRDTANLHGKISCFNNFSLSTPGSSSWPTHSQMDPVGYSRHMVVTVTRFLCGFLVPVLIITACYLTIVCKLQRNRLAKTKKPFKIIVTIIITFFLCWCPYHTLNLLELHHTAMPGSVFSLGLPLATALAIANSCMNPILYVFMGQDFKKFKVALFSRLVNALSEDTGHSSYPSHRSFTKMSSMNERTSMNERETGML
Chain of human Y1 receptor (hY1R) (P25929 whole entry): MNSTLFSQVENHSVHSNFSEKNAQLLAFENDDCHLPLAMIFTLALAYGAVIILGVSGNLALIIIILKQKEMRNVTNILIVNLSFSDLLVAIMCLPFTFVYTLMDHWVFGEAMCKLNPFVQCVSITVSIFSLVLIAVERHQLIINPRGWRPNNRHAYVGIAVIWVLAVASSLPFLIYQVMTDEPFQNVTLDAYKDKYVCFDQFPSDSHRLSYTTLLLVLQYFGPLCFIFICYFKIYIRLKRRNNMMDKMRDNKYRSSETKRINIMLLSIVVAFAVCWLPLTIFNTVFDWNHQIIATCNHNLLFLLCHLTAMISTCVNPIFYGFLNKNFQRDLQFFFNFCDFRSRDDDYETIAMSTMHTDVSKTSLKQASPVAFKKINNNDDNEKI

SMILES | Ki [1] [nM] | Ki ([1]; read-out: Nluc-GPR1 Ki) [nM] | effect at hY1R (in words) [2] | influence on CMKLR1 G protein signaling (in words) [3] | IC50 [4] [nM]
COc1ccc(C)cc1NC(=O)CSc1nc(=O)c(S(=O)(=O)c2ccc(C)c(Cl)c2)c[nH]1 [Compound 1, 2-{[5-(3-Chloro-4-methylbenzenesulfonyl)-4-oxo-1,4-dihydropyrimidin-2-yl]sulfanyl}-N-(2-methoxy-5-methyl-phenyl)acetamide] | > 1000 | 1320 | no effect | – | –
C[N+](C)(C)CCC(=O)c1cccc2ccccc12.[I-] [α-NETA, 2-(α-naphthoyl)-ethyl-trimethylammonium iodide] | – | – | – | No influence | 380
